Assays:
UGT2B7 = molecular target: T1, UGT2B7 (Homo sapiens, UniProt P16662); test: Inhibition of 4-MU glucuronidation by recombinant UGT2B7; conditions: recombinant UGT2B7, pH 7.4, probe 4-MU
T1 sequence (P16662 24-529): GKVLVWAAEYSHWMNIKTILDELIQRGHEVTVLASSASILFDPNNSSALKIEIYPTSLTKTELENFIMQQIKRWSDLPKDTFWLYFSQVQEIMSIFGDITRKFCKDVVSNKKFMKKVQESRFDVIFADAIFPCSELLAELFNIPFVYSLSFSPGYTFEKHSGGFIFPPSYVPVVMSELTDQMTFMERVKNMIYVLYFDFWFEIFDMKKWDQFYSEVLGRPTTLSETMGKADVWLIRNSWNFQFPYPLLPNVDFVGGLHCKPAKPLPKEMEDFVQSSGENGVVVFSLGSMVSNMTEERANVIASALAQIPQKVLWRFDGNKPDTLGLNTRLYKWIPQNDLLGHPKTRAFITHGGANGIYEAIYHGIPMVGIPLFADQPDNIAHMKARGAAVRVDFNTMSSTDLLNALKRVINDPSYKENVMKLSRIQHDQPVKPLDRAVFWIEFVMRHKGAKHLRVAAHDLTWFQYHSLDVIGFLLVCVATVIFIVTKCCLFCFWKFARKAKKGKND

UGT1A10 = molecular target: T2, UGT1A10 (Homo sapiens, UniProt Q9HAW8); test: Inhibition of 4-MU glucuronidation by recombinant UGT1A10; conditions: recombinant UGT1A10, pH 7.4, probe 4-MU
T2 sequence (Q9HAW8 26-530): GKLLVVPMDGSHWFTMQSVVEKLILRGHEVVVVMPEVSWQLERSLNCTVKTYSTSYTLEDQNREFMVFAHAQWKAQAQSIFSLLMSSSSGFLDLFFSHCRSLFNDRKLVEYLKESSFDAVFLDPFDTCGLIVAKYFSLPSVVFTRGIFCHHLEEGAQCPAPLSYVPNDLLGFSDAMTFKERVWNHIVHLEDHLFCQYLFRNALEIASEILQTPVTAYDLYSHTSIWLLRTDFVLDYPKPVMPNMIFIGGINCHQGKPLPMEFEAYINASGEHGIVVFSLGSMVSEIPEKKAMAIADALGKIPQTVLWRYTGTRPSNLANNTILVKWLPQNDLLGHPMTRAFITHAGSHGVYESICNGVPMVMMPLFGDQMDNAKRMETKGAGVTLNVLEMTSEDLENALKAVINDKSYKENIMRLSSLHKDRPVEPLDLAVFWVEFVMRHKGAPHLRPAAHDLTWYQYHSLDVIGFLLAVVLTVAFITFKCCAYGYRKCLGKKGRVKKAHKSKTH

UGT1A4 = molecular target: T3, UGT1A4 (Homo sapiens, UniProt P22310); test: Inhibition of TFP glucuronidation by recombinant UGT1A4; conditions: for activity at 30 min, 100 µM: human
T3 sequence (P22310 29-534): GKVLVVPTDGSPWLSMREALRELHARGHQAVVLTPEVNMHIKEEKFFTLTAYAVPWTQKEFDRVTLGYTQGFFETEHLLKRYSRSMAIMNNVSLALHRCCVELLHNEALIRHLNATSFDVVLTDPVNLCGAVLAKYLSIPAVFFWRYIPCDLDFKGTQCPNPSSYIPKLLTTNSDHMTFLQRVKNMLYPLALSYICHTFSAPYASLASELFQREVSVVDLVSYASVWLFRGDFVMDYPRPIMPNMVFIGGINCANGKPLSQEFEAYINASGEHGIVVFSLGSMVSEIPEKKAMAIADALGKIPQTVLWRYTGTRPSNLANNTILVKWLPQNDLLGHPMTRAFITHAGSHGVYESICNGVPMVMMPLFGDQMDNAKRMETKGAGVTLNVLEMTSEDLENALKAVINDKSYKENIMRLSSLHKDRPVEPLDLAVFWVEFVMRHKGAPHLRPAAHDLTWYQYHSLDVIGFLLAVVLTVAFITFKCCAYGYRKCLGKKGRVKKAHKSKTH

UGT1A6 = molecular target: T4, UGT1A6 (Homo sapiens, UniProt P19224); test: Inhibition of 4-MU glucuronidation by recombinant UGT1A6; assay type: in vitro ADME; conditions: recombinant UGT1A6, pH 7.4, probe 4-MU, 100 μM inhibitor, 4-MU substrate, positive control diclofenac, read-out: Remaining activities (%) of UGT1A6
T4 construct: purchased BD Gentest (Woburn, MA); host or cells: baculovirus-infected insect cells
T4 sequence (P19224 27-532): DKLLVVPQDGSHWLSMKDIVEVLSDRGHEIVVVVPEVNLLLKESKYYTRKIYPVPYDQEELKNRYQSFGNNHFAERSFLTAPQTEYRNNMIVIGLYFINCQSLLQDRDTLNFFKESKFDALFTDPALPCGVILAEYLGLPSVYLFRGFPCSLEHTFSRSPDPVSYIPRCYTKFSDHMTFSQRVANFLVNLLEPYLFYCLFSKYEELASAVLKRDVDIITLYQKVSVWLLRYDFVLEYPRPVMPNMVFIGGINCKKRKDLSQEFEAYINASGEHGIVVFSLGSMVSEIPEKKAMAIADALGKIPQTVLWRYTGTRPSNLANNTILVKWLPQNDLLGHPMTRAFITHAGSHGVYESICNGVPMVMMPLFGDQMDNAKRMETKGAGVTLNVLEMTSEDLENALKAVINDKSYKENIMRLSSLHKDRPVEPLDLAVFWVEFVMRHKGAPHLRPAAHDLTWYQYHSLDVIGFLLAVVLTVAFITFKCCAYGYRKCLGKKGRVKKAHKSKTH

UGT1A8 = molecular target: T5, UGT1A8 (Homo sapiens, UniProt Q9HAW9); test: Inhibition of 4-MU glucuronidation by recombinant UGT1A8; conditions: recombinant UGT1A8, pH 7.4, probe 4-MU
T5 sequence (Q9HAW9 26-530): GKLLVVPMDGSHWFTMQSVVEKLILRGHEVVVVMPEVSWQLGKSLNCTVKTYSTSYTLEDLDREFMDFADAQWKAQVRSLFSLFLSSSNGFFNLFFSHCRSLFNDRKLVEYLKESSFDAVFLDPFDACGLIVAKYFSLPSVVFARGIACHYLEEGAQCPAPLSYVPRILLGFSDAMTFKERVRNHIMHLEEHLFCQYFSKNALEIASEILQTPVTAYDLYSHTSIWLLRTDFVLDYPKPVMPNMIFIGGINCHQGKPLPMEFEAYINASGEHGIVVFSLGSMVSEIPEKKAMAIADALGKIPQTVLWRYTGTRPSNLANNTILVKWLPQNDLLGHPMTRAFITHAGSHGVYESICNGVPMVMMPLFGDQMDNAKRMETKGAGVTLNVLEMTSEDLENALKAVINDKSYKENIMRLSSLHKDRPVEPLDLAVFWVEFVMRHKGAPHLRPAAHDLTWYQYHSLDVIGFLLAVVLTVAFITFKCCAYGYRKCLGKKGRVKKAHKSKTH

[1] = recombinant UGT1A4, pH 7.4, probe TFP (trifluoperazine)

| SMILES | activity at 120 min, 100 µM (UGT2B7) | activity at 120 min, 100 µM (UGT1A10) | IC50 (UGT1A4) | activity at 30 min, 100 µM (UGT1A4; pH 7.4) | activity at 30 min, 100 µM (UGT1A6) | activity at 30 min, 100 µM (UGT1A8) | Ki (UGT1A4) | inhibition type, UGT1A4 (UGT1A4; TFP substrate) | activity at 30 min, 100 µM (UGT1A4; [1]) |
| --- | --- | --- | --- | --- | --- | --- | --- | --- | --- |
| CNC(=O)c1ccccc1Sc1ccc2c(/C=C/c3ccccn3)n[nH]c2c1 [Axitinib, axitinib] | 55.9 ± 9.7% | 55.5 ± 2.7% | 14.2 ± 3.2 µM | 14.9 ± 1.8% | 85.8 ± 3.5% | 54.6 ± 2.4% | – | – | – |
| CS(=O)(=O)CCNCc1ccc(-c2ccc3ncnc(Nc4ccc(OCc5cccc(F)c5)c(Cl)c4)c3c2)o1 [Lapatinib, lapatinib] | 90.5 ± 1% | 73.6 ± 4.8% | 3.8 ± 0.7 µM | – | 88.4 ± 5.9% | 73.5 ± 10.6% | 36.4 ± 5 µM | mixed | 40.7 ± 1.9% |
| COc1cc2c(Nc3ccc(Br)cc3F)ncnc2cc1OCC1CCN(C)CC1 [Vandetanib, vandetanib] | 49.8 ± 3.7% | 49 ± 0.4% | – | – | 55.1 ± 1.1% | 56 ± 6.3% | – | – | 62.8% |
